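Values below derive from 48-hour exposures of cells grown in 96-well plates, with endpoints linearly interpolated between the two concentrations bracketing the appropriate inhibition level. TGI marks complete inhibition of growth.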
Experiments:
Experiment in all cases: DTP human tumour cell line panel, 48 h
HOP-18 NSCLC = tested on: HOP-18 NSCLC
NCI-H460 lung = tested on: NCI-H460 lung
K-562 leukemia = tested on: K-562 leukemia
OVCAR-3 ovarian = tested on: OVCAR-3 ovarian
UACC-62 melanoma = tested on: UACC-62 melanoma
UACC-257 melanoma = tested on: UACC-257 melanoma
SNB-19 CNS = tested on: SNB-19 CNS
HCC-2998 colon = tested on: HCC-2998 colon
A498 renal = tested on: A498 renal
SN12C renal = tested on: SN12C renal
M19-MEL melanoma = tested on: M19-MEL melanoma
RXF-631 renal = tested on: RXF-631 renal
OVCAR-5 ovarian = tested on: OVCAR-5 ovarian
IGROV1 ovarian = tested on: IGROV1 ovarian
MALME-3M melanoma = tested on: MALME-3M melanoma
SF-268 CNS = tested on: SF-268 CNS
OVCAR-8 ovarian = tested on: OVCAR-8 ovarian
KM12 colon = tested on: KM12 colon
SNB-78 CNS = tested on: SNB-78 CNS
SK-MEL-5 melanoma = tested on: SK-MEL-5 melanoma
SW-620 colon = tested on: SW-620 colon
HCT-15 colon = tested on: HCT-15 colon
MOLT-4 leukemia = tested on: MOLT-4 leukemia
EKVX NSCLC = tested on: EKVX NSCLC
SK-MEL-28 melanoma = tested on: SK-MEL-28 melanoma
HL-60(TB) leukemia = tested on: HL-60(TB) leukemia
SK-MEL-2 melanoma = tested on: SK-MEL-2 melanoma
RXF 393 renal = tested on: RXF 393 renal
CCRF-CEM leukemia = tested on: CCRF-CEM leukemia
COLO 205 colon = tested on: COLO 205 colon
SF-295 CNS = tested on: SF-295 CNS
NCI-H522 lung = tested on: NCI-H522 lung
SNB-75 CNS = tested on: SNB-75 CNS
RPMI-8226 leukemia = tested on: RPMI-8226 leukemia
ACHN renal = tested on: ACHN renal
LOX IMVI melanoma = tested on: LOX IMVI melanoma
TK-10 renal = tested on: TK-10 renal
SR leukemia = tested on: SR leukemia
SF-539 CNS = tested on: SF-539 CNS
HOP-92 NSCLC = tested on: HOP-92 NSCLC
XF 498 CNS = tested on: XF 498 CNS
M14 melanoma = tested on: M14 melanoma
HT29 colon = tested on: HT29 colon
786-0 renal = tested on: 786-0 renal
DLD-1 colon = tested on: DLD-1 colon
KM20L2 colon = tested on: KM20L2 colon
SK-OV-3 ovarian = tested on: SK-OV-3 ovarian
U251 CNS = tested on: U251 CNS
UO-31 renal = tested on: UO-31 renal
HCT-116 colon = tested on: HCT-116 colon
DMS 114 small cell lung = tested on: DMS 114 small cell lung
A549 NSCLC = tested on: A549 NSCLC
LXFL 529 NSCLC = tested on: LXFL 529 NSCLC
NCI-H23 lung = tested on: NCI-H23 lung
NCI-H226 lung = tested on: NCI-H226 lung
OVCAR-4 ovarian = tested on: OVCAR-4 ovarian
HOP-62 NSCLC = tested on: HOP-62 NSCLC
CAKI-1 renal = tested on: CAKI-1 renal
DMS 273 small cell lung = tested on: DMS 273 small cell lung

For COCOCCCCCO[Si](C)(C)C(C)(C)C, the TGI (HOP-18 NSCLC) was 65.3 µM, the TGI (NCI-H460 lung) was 43.4 µM and the TGI (K-562 leukemia) was 54.9 µM. It also gave a TGI (OVCAR-3 ovarian) of 27.6 µM, a TGI (UACC-62 melanoma) of 64.6 µM and a TGI (UACC-257 melanoma) of 40.2 µM. It also gave a TGI (SNB-19 CNS) of 30.6 µM, a TGI (HCC-2998 colon) of 31.9 µM and a TGI (A498 renal) of 77.8 µM. It also gave a TGI (SN12C renal) of 32 µM, a TGI (M19-MEL melanoma) of 70 µM and a TGI (RXF-631 renal) of 52.8 µM. For the same compound, the TGI (OVCAR-5 ovarian) was 44.9 µM, the TGI (IGROV1 ovarian) was 69.7 µM and the TGI (MALME-3M melanoma) was 47.9 µM. For the same compound, the TGI (SF-268 CNS) was 27.9 µM, the TGI (OVCAR-8 ovarian) was 41.2 µM and the TGI (KM12 colon) was 63.2 µM. For the same compound, the TGI (SNB-78 CNS) was 48.3 µM, the TGI (SK-MEL-5 melanoma) was 30.3 µM and the TGI (SW-620 colon) was 33.5 µM. The TGI (HCT-15 colon) was 32.1 µM, the TGI (MOLT-4 leukemia) was 36.9 µM and the TGI (EKVX NSCLC) was 46.8 µM. The TGI (SK-MEL-28 melanoma) was > 100 µM, the TGI (HL-60(TB) leukemia) was 30.9 µM and the TGI (SK-MEL-2 melanoma) was 31 µM. For the same compound, the TGI (RXF 393 renal) was 31.9 µM, the TGI (CCRF-CEM leukemia) was 58.1 µM and the TGI (COLO 205 colon) was 38.5 µM. It also gave a TGI (SF-295 CNS) of 30.1 µM, a TGI (NCI-H522 lung) of 28.6 µM and a TGI (SNB-75 CNS) of 83.8 µM. The TGI (RPMI-8226 leukemia) was 51.9 µM, the TGI (ACHN renal) was 27.7 µM and the TGI (LOX IMVI melanoma) was 31.2 µM. For the same compound, the TGI (TK-10 renal) was 97.6 µM, the TGI (SR leukemia) was 49.6 µM and the TGI (SF-539 CNS) was 40.8 µM. It also gave a TGI (HOP-92 NSCLC) of 36.9 µM, a TGI (XF 498 CNS) of 31.6 µM and a TGI (M14 melanoma) of 48.7 µM. For the same compound, the TGI (HT29 colon) was 30.8 µM, the TGI (786-0 renal) was 29 µM and the TGI (DLD-1 colon) was > 100 µM. For the same compound, the TGI (KM20L2 colon) was 75.8 µM, the TGI (SK-OV-3 ovarian) was > 100 µM and the TGI (U251 CNS) was 29.4 µM. The TGI (UO-31 renal) was 42.8 µM, the TGI (HCT-116 colon) was 26.4 µM and the TGI (DMS 114 small cell lung) was 35.9 µM. The TGI (A549 NSCLC) was 50 µM, the TGI (LXFL 529 NSCLC) was > 100 µM and the TGI (NCI-H23 lung) was 42.7 µM.

With C(=C\c1cc(CCc2nc3ccccc3[nH]2)[nH]n1)/c1ccccc1 the TGI (NCI-H226 lung) was > 100 µM, the TGI (HOP-18 NSCLC) was > 100 µM and the TGI (NCI-H460 lung) was > 100 µM. For the same compound, the TGI (K-562 leukemia) was > 100 µM, the TGI (OVCAR-3 ovarian) was > 100 µM and the TGI (UACC-62 melanoma) was > 100 µM. For the same compound, the TGI (UACC-257 melanoma) was > 100 µM, the TGI (SNB-19 CNS) was > 100 µM and the TGI (HCC-2998 colon) was > 100 µM. For the same compound, the TGI (A498 renal) was > 100 µM, the TGI (SN12C renal) was > 100 µM and the TGI (M19-MEL melanoma) was > 100 µM. The TGI (OVCAR-4 ovarian) was > 100 µM, the TGI (RXF-631 renal) was > 100 µM and the TGI (OVCAR-5 ovarian) was > 100 µM. The TGI (IGROV1 ovarian) was > 100 µM, the TGI (MALME-3M melanoma) was > 100 µM and the TGI (SF-268 CNS) was > 100 µM. The TGI (OVCAR-8 ovarian) was > 100 µM, the TGI (KM12 colon) was > 100 µM and the TGI (HOP-62 NSCLC) was > 100 µM. For the same compound, the TGI (SK-MEL-5 melanoma) was > 100 µM, the TGI (SW-620 colon) was > 100 µM and the TGI (HCT-15 colon) was > 100 µM. The TGI (MOLT-4 leukemia) was > 100 µM, the TGI (EKVX NSCLC) was > 100 µM and the TGI (SK-MEL-28 melanoma) was > 100 µM. The TGI (HL-60(TB) leukemia) was > 100 µM, the TGI (RXF 393 renal) was > 100 µM and the TGI (CCRF-CEM leukemia) was > 100 µM. For the same compound, the TGI (COLO 205 colon) was > 100 µM, the TGI (SF-295 CNS) was > 100 µM and the TGI (NCI-H522 lung) was > 100 µM. The TGI (SNB-75 CNS) was > 100 µM, the TGI (RPMI-8226 leukemia) was > 100 µM and the TGI (ACHN renal) was > 100 µM. The TGI (LOX IMVI melanoma) was > 100 µM, the TGI (TK-10 renal) was > 100 µM and the TGI (SR leukemia) was > 100 µM. The TGI (SF-539 CNS) was > 100 µM, the TGI (HOP-92 NSCLC) was > 100 µM and the TGI (XF 498 CNS) was > 100 µM. The TGI (M14 melanoma) was > 100 µM, the TGI (HT29 colon) was > 100 µM and the TGI (786-0 renal) was > 100 µM. For the same compound, the TGI (DLD-1 colon) was > 100 µM, the TGI (KM20L2 colon) was > 100 µM and the TGI (SK-OV-3 ovarian) was > 100 µM. The TGI (U251 CNS) was > 100 µM, the TGI (UO-31 renal) was > 100 µM and the TGI (CAKI-1 renal) was > 100 µM. The TGI (HCT-116 colon) was > 100 µM, the TGI (DMS 114 small cell lung) was > 100 µM and the TGI (A549 NSCLC) was > 100 µM. The TGI (NCI-H23 lung) was > 100 µM.

Cn1cc(NC(=O)c2cc(NC(=O)CCCCCCCCC(=O)Nc3cc(C(=O)Nc4cc(C(=O)NCCC(N)N)n(C)c4)n(C)c3)cn2C)cc1C(=O)NCCC(=N)N was tested, and the TGI (NCI-H226 lung) was 70.7 µM, the TGI (HOP-18 NSCLC) was 47.2 µM and the TGI (NCI-H460 lung) was 62 µM. The TGI (K-562 leukemia) was 40.9 µM, the TGI (OVCAR-3 ovarian) was 74.5 µM and the TGI (UACC-62 melanoma) was 60.1 µM. It also gave a TGI (UACC-257 melanoma) of 57 µM, a TGI (SNB-19 CNS) of 62.5 µM and a TGI (HCC-2998 colon) of 52 µM. For the same compound, the TGI (SN12C renal) was 68.9 µM, the TGI (M19-MEL melanoma) was 66 µM and the TGI (OVCAR-4 ovarian) was > 100 µM. The TGI (RXF-631 renal) was 71.2 µM, the TGI (OVCAR-5 ovarian) was 45.3 µM and the TGI (IGROV1 ovarian) was 74.4 µM. It also gave a TGI (MALME-3M melanoma) of 15.5 µM, a TGI (SF-268 CNS) of 66.1 µM and a TGI (OVCAR-8 ovarian) of 52.4 µM. The TGI (KM12 colon) was 63.4 µM, the TGI (HOP-62 NSCLC) was 59.4 µM and the TGI (SNB-78 CNS) was 93.1 µM. For the same compound, the TGI (SK-MEL-5 melanoma) was 30.2 µM, the TGI (SW-620 colon) was 44.9 µM and the TGI (HCT-15 colon) was > 100 µM. The TGI (MOLT-4 leukemia) was 49.1 µM, the TGI (EKVX NSCLC) was 48.1 µM and the TGI (SK-MEL-28 melanoma) was 43.2 µM. For the same compound, the TGI (SK-MEL-2 melanoma) was 49.3 µM, the TGI (RXF 393 renal) was 43.2 µM and the TGI (CCRF-CEM leukemia) was 49.3 µM. The TGI (COLO 205 colon) was > 100 µM, the TGI (SF-295 CNS) was 74.8 µM and the TGI (NCI-H522 lung) was 79.2 µM. The TGI (SNB-75 CNS) was 55.3 µM, the TGI (RPMI-8226 leukemia) was 28.6 µM and the TGI (ACHN renal) was 36.5 µM. For the same compound, the TGI (LOX IMVI melanoma) was > 100 µM, the TGI (TK-10 renal) was 38.9 µM and the TGI (SF-539 CNS) was 54.4 µM. It also gave a TGI (HOP-92 NSCLC) of 65.2 µM, a TGI (XF 498 CNS) of 66.8 µM and a TGI (DMS 273 small cell lung) of 55.8 µM. For the same compound, the TGI (M14 melanoma) was 66.3 µM, the TGI (HT29 colon) was 49.7 µM and the TGI (786-0 renal) was 47.1 µM. It also gave a TGI (DLD-1 colon) of 73.9 µM, a TGI (KM20L2 colon) of 44 µM and a TGI (SK-OV-3 ovarian) of 78.7 µM. The TGI (U251 CNS) was 36.8 µM, the TGI (UO-31 renal) was 56.9 µM and the TGI (CAKI-1 renal) was 49.7 µM. It also gave a TGI (HCT-116 colon) of 55.3 µM, a TGI (A549 NSCLC) of 40 µM and a TGI (LXFL 529 NSCLC) of 76.9 µM. The TGI (NCI-H23 lung) was > 100 µM.
